The results in this text go back to US9340532B2, “Methods and compositions for inhibiting CNKSR1” (PHUSIS THERAPEUTICS, INC., priority 2012, dated 2016).

The test system of data set [1] is A549 (KRAS mutant cell line). In words: Proliferation Assay A549. As to conditions: Homo sapiens, N = 2 experiments. In kind it is cell-based. The method, boiled down:
(§1)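 Cells plated 2000 per well, allowed 24 h to attach, then exposed 72 h to agents (0-100 μM for isogenic lines; 0.01 to 50 μM for the RPMI 1640/10% FBS-cultured 30-line NSCLC panel). MTS read at 490 nm after 2 h, normalized to no-cell and no-drug controls; IC50 from curve fitting.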

Data set [2] concerns the target T1, rHuman carboxyesterase 1 (Homo sapiens, UniProt P23141).
T1 sequence (P23141 18-567): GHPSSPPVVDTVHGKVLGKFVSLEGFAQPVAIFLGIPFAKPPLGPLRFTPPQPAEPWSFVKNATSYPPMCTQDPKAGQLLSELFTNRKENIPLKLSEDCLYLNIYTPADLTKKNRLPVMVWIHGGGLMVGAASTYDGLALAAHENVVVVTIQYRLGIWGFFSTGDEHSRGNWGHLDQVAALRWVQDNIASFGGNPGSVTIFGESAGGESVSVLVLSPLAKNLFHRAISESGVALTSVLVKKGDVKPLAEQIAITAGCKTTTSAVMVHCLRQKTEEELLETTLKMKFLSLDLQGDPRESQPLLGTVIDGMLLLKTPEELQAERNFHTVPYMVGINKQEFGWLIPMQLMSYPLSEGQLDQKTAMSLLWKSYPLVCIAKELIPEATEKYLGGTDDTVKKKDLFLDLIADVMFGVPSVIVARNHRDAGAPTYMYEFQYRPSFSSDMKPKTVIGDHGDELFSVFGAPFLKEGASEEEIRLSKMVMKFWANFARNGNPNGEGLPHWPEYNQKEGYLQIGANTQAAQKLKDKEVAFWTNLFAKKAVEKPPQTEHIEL
Description: Stability with carboxyesterase 1. It is filed as in vitro ADME. As to conditions: rHuman carboxyesterase 1 24 U/ml, pH 7.4, 37° C.

Data set [3] relates to H1373 (KRAS mutant cell line). Description: Proliferation Assay H1373. In kind it is cell-based. Particulars: Homo sapiens, NCI-H1373, N = 2 experiments. Put shortly:
as §1

The target in data set [4] is T2, PH-domain of PDPK1 (Homo sapiens, UniProt O15530).
T2 construct: made in house
T2 sequence (O15530 459-550 limits assumed): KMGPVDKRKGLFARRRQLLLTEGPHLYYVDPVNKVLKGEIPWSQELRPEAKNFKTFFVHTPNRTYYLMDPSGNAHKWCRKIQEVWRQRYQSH
In words: SPR binding to expressed PH-domain of PDPK1. The method, then: (§2) In embodiments, the binding of identified compounds to the crystal structures of other PH-domain signaling proteins, AKT, PDPK1, Btk, and Tiam1 can be predicted. In such embodiments, the Kds exceed about 100 μM. In other embodiments, SPR can measure the binding of identified compounds to the expressed PH-domains of AKT, PDPK1 and Tiam1. […] Thus, the identified compounds appear have, at least, about 50 to about 100 fold selectivity for CNKSR1 compared to the other PH-domains studied.
(§3) A commercially available docking package, GOLD (GOLD [3.2], CCDC: Cambridge, UK, 2007) was used to evaluate the docking of compounds 1-7 into the binding pocket, see e.g. Table 5. Other docking was performed using modeling algorithms with state-of-the-art commercial drug discovery software (Schrodinger suite). GLIDE was chosen as the docking algorithm used to select and optimize compounds, providing a GlideScore as a rough estimate of binding affinity that was used to rank and select the best compounds. Additionally, ligand-based approaches provided an alternative to structure based drug discovery. Ligand-based virtual screening methodologies can take into account shape and electrostatics (like ROCS) and the pharmacophoric features (acceptor, donor, hydrophobic, aromatic, etc.) of its functional groups. […]

The test system of data set [5] is PH-domain of Tiam1. Description: SPR binding to expressed PH-domain of Tiam1. The method, then:
as §2, §3

The nature of data set [6]: Mouse pharmacokinetics (iv). It is filed as in vivo.
Data set [7] addresses T3, CNK1 PH-domain (CNKSR1) (Homo sapiens, UniProt Q969H4).
T3 construct: The PH-domain His-fusion proteins (CNK1 and AKT1) were expressed and immobilized on a NTA chip; made in house
T3 sequence (Q969H4 403-502 limits assumed): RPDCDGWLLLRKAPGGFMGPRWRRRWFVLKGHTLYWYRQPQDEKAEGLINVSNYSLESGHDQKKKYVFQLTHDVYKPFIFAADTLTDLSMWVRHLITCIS
Description: SPR binding assay (Biacore T100), CNK1 PH-domain. The method, boiled down:
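His-tagged CNK1 PH-domain was captured on an NTA chip to ≤10,000 RU. Small-molecule analytes were injected at 50 μM to 0.010 μM at 30 μL/min, with 1-5% (v/v) DMSO in samples and running buffer. Binding was measured by surface plasmon resonance.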

Data set [8] in a line: Stability in biological media: dog plasma. In kind it is in vitro ADME. As to conditions: Dog plasma (beagle), 50 μg/ml, 37° C.

Consider `CCOC(=O)Cc1nn(Cc2nc(-c3ccc(C)cc3)cs2)c(=O)c2ccccc12` [Compound 7], for which the half-inhibitory concentration (IC50) in data set [1] was 15 µM; in data set [3], greater than 100 µM. The Half life in data set [2] was determined as 0.317 h; in data set [8], 9.3 h. In addition, the “SPR binding to PH-domain of PDPK1” value in data set [4] is on record as “No measurable binding”. In addition, the “SPR binding to PH-domain of Tiam1” value in data set [5] is on record as “No measurable binding”. In data set [6], this compound showed a t1/2β of 3 UN min. Moreover, the dissociation constant Kd in data set [7] (Table 6, read-out: CNKS KD) was 3.2 µM. Moreover, the entries for the “Surface Plasmon Resonance CNKSR1 binding (RU max)” value in data set [7] (date 11 26 13) and in data set [7] (date 12 09 13) were 5.019 RU * 100/Da and 0.205 RU * 100/Da, respectively. In addition, the “Surface Plasmon Resonance CNKSR1 stability (RU max post-injection)” value was determined as 0.761 RU * 100/Da in data set [7] (date 11 26 13) and 0.798 RU * 100/Da in data set [7] (date 12 09 13).
